The values below come from doi:10.1101/212431v1, “Genetic variation across the human olfactory receptor repertoire alters odor perception” (biorxiv, 2017).

Each structure is given as a SMILES string.

This assay deals with T1, OR11A1 (reference haplotype MA) (Homo sapiens, UniProt Q9GZK7).
T1 construct: Hana3A cells co-transfected with RTP1S and M3-R
T1 sequence (Q9GZK7 1-315): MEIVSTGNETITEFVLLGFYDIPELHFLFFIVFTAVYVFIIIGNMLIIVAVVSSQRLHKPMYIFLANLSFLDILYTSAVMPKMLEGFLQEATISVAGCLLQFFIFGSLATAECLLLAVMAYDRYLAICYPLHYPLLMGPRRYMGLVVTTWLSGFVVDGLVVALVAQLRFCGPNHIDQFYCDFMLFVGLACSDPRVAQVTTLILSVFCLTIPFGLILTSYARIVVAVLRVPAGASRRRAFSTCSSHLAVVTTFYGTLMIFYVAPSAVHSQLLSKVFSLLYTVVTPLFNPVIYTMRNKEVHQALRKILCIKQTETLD
In words: CRE-luciferase reporter assay in Hana3A cells. It is filed as cell-based. Particulars: read-out: log(EC50 of reference MA) (converted). On the technique in general: Reporter assays use an easily measured gene product as a stand-in for the process of interest.

As usually defined, the EC50 is the concentration giving half of the maximal effect. For the compound `CCC1(O)C2(C)CCC(C2)C1(C)C` (stereo not shown) [2-ethylfenchol], the EC50 was 158 nM.
